Common to all, as to type: in vivo
Experiment [1] deals with Cowpea Aphid (Aphis Craccivora). Briefly: CE.1 Cowpea aphid, comparative test. Conditions: read-out: % mortality in comparison to untreated controls. The procedure:
(§1) The tables show % mortality in comparison to untreated controls.
CE.1 Cowpea Aphid (Aphis Craccivora)
Potted cowpea plants colonized with approximately 100-150 aphids of various stages were sprayed after the pest population has been recorded. Population reduction was assessed after 24, 72, and 120 hours.

Experiment [2] relates to Rice Brown Plant Hopper (Nilaparvata lugens). Briefly: CE.2 Rice brown plant hopper, comparative test. Conditions: read-out: % mortality in comparison to untreated controls. The procedure: as §1
CE.2 Rice Brown Plant Hopper (Nilaparvata lugens)
Rice seedlings were cleaned and washed 24 hours before spraying. The active compounds were formulated in 50:50 acetone:water (vol:vol) and 0.1% vol/vol surfactant (EL 620) was added. Potted rice seedlings were sprayed with 5 ml test solution, air dried, placed in cages and inoculated with 10 adults. Treated rice plants were kept at about 28-29° C. and relative humidity of about 50-60%. Percent mortality was recorded after 72 hours.

The subject of experiment [3] is Orchid Thrips (Dichromothrips Corbetti). Briefly: CE.3 Orchid thrips, comparative test. Conditions: 96 h, read-out: % mortality in comparison to untreated controls. On the procedure: as §1
CE.3 Orchid Thrips (Dichromothrips Corbetti)
Dichromothrips corbetti adults used for bioassay were obtained from a colony maintained continuously under laboratory conditions. For testing purposes, the test compound was diluted to a concentration of 300 ppm (wt compound: vol diluent) in a 1:1 mixture of acetone:water (vol:vol), plus 0.01% vol/vol Kinetic® surfactant.
Thrips potency of each compound was evaluated by using a floral-immersion technique. Plastic petri dishes were used as test arenas. All petals of individual, intact orchid flowers were dipped into treatment solution and allowed to dry. Treated flowers were placed into individual petri dishes along with 10-15 adult thrips. The petri dishes were then covered with lids. All test arenas were held under continuous light and a temperature of about 280C for duration of the assay. After 4 days, the numbers of live thrips were counted on each flower, and along inner walls of each petri dish. The level of thrips mortality was extrapolated from pre-treatment thrips numbers.

Experiment [4] has as its system Rice Green Leafhopper (Nephotettix virescens). Briefly: CE.5 Rice green leafhopper, comparative test. The settings on record: 3 ppm, after 72 hours, read-out: % mortality in comparison to untreated controls. The procedure:
as §1
CE.5 Rice Green Leafhopper (Nephotettix virescens)
Rice seedlings were cleaned and washed 24 hours before spraying. The active compounds were formulated in 50:50 acetone:water (vol:vol), and 0.1% vol/vol surfactant (EL 620) was added. Potted rice seedlings were sprayed with 5 ml test solution, air dried, placed in cages and inoculated with 10 adults. Treated rice plants were kept at about 28-29° C. and relative humidity of about 50-60%. Percent mortality was recorded after 72 hours.

In experiment [5] the test system is Silverleaf Whitefly (Bemisia argentifolii). Briefly: CE.4 Silverleaf whitefly, comparative test. Conditions: 72 h, read-out: % mortality in comparison to untreated controls. On the procedure: as §1
CE.4 Silverleaf Whitefly (Bemisia argentifolii)
The active compounds were formulated in 50:50 acetone:water (vol:vol) and 100 ppm Kinetica™ surfactant.
Selected cotton plants were grown to the cotyledon state (one plant per pot). The cotyledons were dipped into the test solution to provide complete coverage of the foliage and placed in a well-vented area to dry. Each pot with treated seedling was placed in a plastic cup and 10 to 12 whitefly adults (approximately 3-5 day old) were introduced. The insects were collected using an aspirator and a Tygon® tubing connected to a barrier pipette tip. The tip, containing the collected insects, was then gently inserted into the soil containing the treated plant, allowing insects to crawl out of the tip to reach the foliage for feeding. The cups were covered with a reusable screened lid. Test plants were maintained in the holding room at about 25° C. and about 20-40% relative humidity for 3 days avoiding direct exposure to the fluorescent light (24 hour photoperiod) to prevent trapping of heat inside the cup. Mortality was assessed 3 days after treatment of the plants.

The structures appear in SMILES notation. Where two headings read alike, the source gives them in different places.

For orientation: mortality means the percentage killed. For `Cc1cc(C2=NSC(c3cc(Cl)cc(Cl)c3)(C(F)(F)F)C2)ccc1C(=O)NC1CCN(CC(F)(F)F)C1=O` (stereo not shown) [No. 2-195 of WO 2013/092943, reference compound], the mortality at 300 ppm in experiment [1] (at 300 ppm, sprayed cowpea plants) was 0%. Also, the mortality at 10 ppm in experiment [2] (10 ppm, after 72 hours) worked out at 25%; in experiment [3] (10 ppm, after 4 days), 0%. In experiment [4], the mortality at 3 ppm was found to be 0%.
Turning to `Cc1cc(C2=NOC(c3cc(Cl)cc(Cl)c3)(C(F)(F)F)C2)ccc1C(=O)NC1CCN(CC(F)(F)F)C1=O` (stereo not shown) [No. 5-405 of US 20070066617, reference compound], the mortality at 10 ppm was determined as 25% in experiment [1], 0% in experiment [2] (72 h), 0% in experiment [3] and 25% in experiment [5].
For the molecule `CCN1CCC(NC(=O)c2ccc(C3=CCC(c4ccc(F)c(Cl)c4)(C(F)(F)F)C3)cc2Cl)C1=O` (stereo not shown) [No. I-9 of WO 2017/016883], the mortality at 10 ppm is 25% in experiment [1] (10 ppm, sprayed cowpea plants); 25% in experiment [2] (10 ppm, after 72 hours); 0% in experiment [3] (10 ppm, after 4 days); 25% in experiment [5] (10 ppm, 3 days after treatment). Besides, in experiment [4], the mortality at 3 ppm is 0%.

Values taken from patent US20200190073A1, “SUBSTITUTED SUCCINIMIDE DERIVATIVES AS PESTICIDES” (BASF SE, priority 2017, published 2020).
